Legend:
[1] = tested on: Pseudomonas aeruginosa, Escherichia coli, Enterobacter cloacae, Acinetobacter calcoaceticus; assay: Repeat in-can challenge test, same conditions (Table 2); type: cell-based
Method: (§1) Various formulations were made in accordance with the present disclosure and tested for performance. In one challenge test, the efficacy of dicyandiamide as an adjuvant for BIT was evaluated using modified ASTM D2574-97 “Standard Test Method for Resistance of Emulsion Paints in the Container to Attack by Microorganisms” with higher inoculation volumes and frequency. A standard consortium of four (4) bacterial populations: Pseudomonas aeruginosa, Escherichia coli, Enterobacter cloacae, Acinetobacter calcoaceticus was used to inoculate three (3) different samples at ten percent (10%), five percent (5%), or two and a half percent (2.5%) of the sample size. At twenty-four (24) hours and seventy-two (72) hours after each inoculation, a portion of each sample was streaked on tryptic soy agar. A dilution plate count was performed at the last seventy-two (72) hour time point.
(§2) Example data provided in Tables 1, 2 and 3 should be understood as indicating the degree of microbial growth observed for a given data point unless otherwise indicated. In particular, each plate is ranked from 0 through 5c (i.e., one of 0, 1, 2, 3, 4, 5, or 5c) according to the degree of observed microbial growth, where: a “0” ranking indicates no growth; a “1” ranking indicates one (1) through five (5) observed colony forming unit (cfu), i.e., the plate was very lightly contaminated; a “2” ranking indicates six (6) through fifteen (15) cfu, i.e., the plate was lightly contaminated; a “3” ranking indicates sixteen (16) through thirty (30) cfu, i.e., the plate was moderately contaminated; a “4” ranking indicates thirty-one (31) through forty-five (45) cfu, i.e., the plate was heavily contaminated; a “5” ranking indicates greater than (45) cfu, i.e., the plate was severely contaminated; and a “5c” ranking indicates confluent growth, i.e., the plate was very severely contaminated. Thus, for instance, Table 1, Challenge 1 at 24 h for BIT 50 ppm has a value of 5 indicating greater than forty-five (45) cfu were observed. As another example for illustration, Table 1, Challenge 1 at 24 h for dicyandiamide 5,000 ppm+BIT 50 ppm has a value of 1 indicating one (1) through five (5) cfu was observed.

[2] = tested on: Pseudomonas aeruginosa, Escherichia coli, Enterobacter cloacae, Acinetobacter calcoaceticus; assay: In-can challenge test, modified ASTM D2574-97 (Table 1); type: cell-based
Method: as §1, §2

[3] = tested on: bacteria, fungi, and yeast; conditions: background statement; cited from earlier work
[4] = neutral pH; cited from earlier work
[5] = BIT 50 ppm, Challenge 1 (10%), 24 h
[6] = BIT 50 ppm, Challenge 1 (10%), 72 h
[7] = BIT 50 ppm, Challenge 2 (5%), 72 h
[8] = BIT 50 ppm, Challenge 3 (2.5%), 24 h
[9] = BIT 50 ppm, Challenge 3 (2.5%), 72 h
[10] = BIT 100 ppm, Challenge 1 (10%), 24 h
[11] = BIT 100 ppm, Challenge 1 (10%), 72 h
[12] = BIT 100 ppm, Challenge 2 (5%), 72 h
[13] = BIT 100 ppm, Challenge 3 (2.5%), 24 h
[14] = BIT 100 ppm, Challenge 3 (2.5%), 72 h

Question: With O=c1[nH]sc2ccccc12 [BIT, 1,2-benzisothiazolin-3-one] as the compound, how does the “degree of microbial growth (plate ranking)” value (shortened to “degree of microbial growth”) ([1]; BIT 35 ppm, Challenge 1 (10%), 24 h) read?
Answer: 5c

Question: What about the “degree of microbial growth” value ([1]; BIT 35 ppm, Challenge 1 (10%), 72 h) of the same compound?
Answer: 5c

Question: And the “degree of microbial growth” value ([1]; BIT 35 ppm, Challenge 2 (5%), 72 h)?
Answer: 5c

Question: And the “degree of microbial growth” value ([1]; BIT 35 ppm, Challenge 3 (2.5%), 24 h)?
Answer: 5c

Question: And the dilution plate count ([1]; BIT 35 ppm, Challenge 3 (2.5%), 72 h)?
Answer: 3.0 × 10^6

Question: What about the “degree of microbial growth” value [1, 5] of the same compound?
Answer: 5c

Question: What about the “degree of microbial growth” value [1, 6] of the same compound?
Answer: 5c

Question: What about the “degree of microbial growth” value [1, 7] of the same compound?
Answer: 5c

Question: And the “degree of microbial growth” value [1, 8]?
Answer: 5c

Question: And the dilution plate count [1, 9]?
Answer: 6.6 × 10^6

Question: And the “degree of microbial growth” value ([1]; BIT 65 ppm, Challenge 1 (10%), 24 h)?
Answer: 5c

Question: And the “degree of microbial growth” value ([1]; BIT 65 ppm, Challenge 1 (10%), 72 h)?
Answer: 3 (a “3” ranking indicates sixteen (16) through thirty (30) cfu, i.e., the plate was moderately contaminated)

Question: And the “degree of microbial growth” value ([1]; BIT 65 ppm, Challenge 2 (5%), 72 h)?
Answer: 5c

Question: And the “degree of microbial growth” value ([1]; BIT 65 ppm, Challenge 3 (2.5%), 24 h)?
Answer: 5c

Question: What about the dilution plate count ([1]; BIT 65 ppm, Challenge 3 (2.5%), 72 h) of the same compound?
Answer: 1.0 × 10^6

Question: And the “degree of microbial growth” value ([1]; BIT 75 ppm, Challenge 1 (10%), 24 h)?
Answer: 5c

Question: What about the “degree of microbial growth” value ([1]; BIT 75 ppm, Challenge 1 (10%), 72 h) of the same compound?
Answer: 0

Question: What about the “degree of microbial growth” value ([1]; BIT 75 ppm, Challenge 2 (5%), 72 h) of the same compound?
Answer: 5 (a “5” ranking indicates greater than (45) cfu, i.e., the plate was severely contaminated)

Question: What about the “degree of microbial growth” value ([1]; BIT 75 ppm, Challenge 3 (2.5%), 24 h) of the same compound?
Answer: 5c

Question: And the dilution plate count ([1]; BIT 75 ppm, Challenge 3 (2.5%), 72 h)?
Answer: 2.8 × 10^5

Question: What about the “degree of microbial growth” value [1, 10] of the same compound?
Answer: 5c

Question: And the “degree of microbial growth” value [1, 11]?
Answer: 0

Question: What about the “degree of microbial growth” value [1, 12] of the same compound?
Answer: 5 (a “5” ranking indicates greater than (45) cfu, i.e., the plate was severely contaminated)

Question: And the “degree of microbial growth” value [1, 13]?
Answer: 5c

Question: What about the dilution plate count [1, 14] of the same compound?
Answer: 1.8 × 10^7

Question: And the “degree of microbial growth” value [2, 5]?
Answer: 5 (a “5” ranking indicates greater than (45) cfu, i.e., the plate was severely contaminated)

Question: And the “degree of microbial growth” value [2, 6]?
Answer: 2 (a “2” ranking indicates six (6) through fifteen (15) cfu, i.e., the plate was lightly contaminated)

Question: And the “degree of microbial growth” value [2, 7]?
Answer: 5 (a “5” ranking indicates greater than (45) cfu, i.e., the plate was severely contaminated)

Question: And the “degree of microbial growth” value [2, 8]?
Answer: 5c

Question: What about the dilution plate count [2, 9] of the same compound?
Answer: 7.8 × 10^6

Question: What about the “degree of microbial growth” value [2, 10] of the same compound?
Answer: 5 (a “5” ranking indicates greater than (45) cfu, i.e., the plate was severely contaminated)

Question: And the “degree of microbial growth” value [2, 11]?
Answer: 0

Question: And the “degree of microbial growth” value [2, 12]?
Answer: 0

Question: And the “degree of microbial growth” value [2, 13]?
Answer: 5 (a “5” ranking indicates greater than (45) cfu, i.e., the plate was severely contaminated)

Question: What about the dilution plate count [2, 14] of the same compound?
Answer: 5.0 × 10^1

Question: And the “amount required for a reliable and quick biocidal activity” value [3]?
Answer: ≤ 500 ppm

Question: With Zinc pyrithione [ZPT] as the compound, how does the solubility in water [4] read?
Answer: 8 ppm
